In ChEMBL document CHEMBL1131871, “Piperidinylpyrroles: design, synthesis and binding properties of novel and selective dopamine D4 receptor ligands” (Bioorg Med Chem Lett, 1999):

How the values were obtained:
D(1A) dopamine receptor = D(1A) dopamine receptor (Bos taurus, UniProt Q95136); test: Displacement of [3H]SCH-23390 from bovine striatal membrane Dopamine receptor D1
D(2) dopamine receptor [1] = biological target: T1, D(2) dopamine receptor (Homo sapiens, UniProt P14416); test: Displacement of [3H]spiperone from human Dopamine receptor D2S expressed in CHO cells; type: cell-based
T1 sequence (P14416 whole entry): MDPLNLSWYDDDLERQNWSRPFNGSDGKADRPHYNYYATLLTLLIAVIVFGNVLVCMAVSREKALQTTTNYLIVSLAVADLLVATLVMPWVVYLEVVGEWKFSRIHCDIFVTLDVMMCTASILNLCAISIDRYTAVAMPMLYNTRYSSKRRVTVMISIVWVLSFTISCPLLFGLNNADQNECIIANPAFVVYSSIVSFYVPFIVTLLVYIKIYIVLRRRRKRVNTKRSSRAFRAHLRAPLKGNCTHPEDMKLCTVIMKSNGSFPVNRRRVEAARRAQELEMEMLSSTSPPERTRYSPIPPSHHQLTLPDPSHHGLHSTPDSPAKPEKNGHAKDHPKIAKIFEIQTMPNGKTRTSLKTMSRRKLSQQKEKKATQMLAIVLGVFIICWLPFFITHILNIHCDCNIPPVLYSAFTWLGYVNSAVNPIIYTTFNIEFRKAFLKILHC

D(2) dopamine receptor [2] = biological target: T1, D(2) dopamine receptor; test: Displacement of [3H]spiperone from human Dopamine receptor D2L expressed in CHO cells; type: cell-based
D(4) dopamine receptor = biological target: T2, D(4) dopamine receptor (Homo sapiens, UniProt P21917); test: Displacement of [3H]spiperone from human Dopamine receptor D4.4 expressed in CHO cells; type: cell-based
T2 sequence (P21917 whole entry): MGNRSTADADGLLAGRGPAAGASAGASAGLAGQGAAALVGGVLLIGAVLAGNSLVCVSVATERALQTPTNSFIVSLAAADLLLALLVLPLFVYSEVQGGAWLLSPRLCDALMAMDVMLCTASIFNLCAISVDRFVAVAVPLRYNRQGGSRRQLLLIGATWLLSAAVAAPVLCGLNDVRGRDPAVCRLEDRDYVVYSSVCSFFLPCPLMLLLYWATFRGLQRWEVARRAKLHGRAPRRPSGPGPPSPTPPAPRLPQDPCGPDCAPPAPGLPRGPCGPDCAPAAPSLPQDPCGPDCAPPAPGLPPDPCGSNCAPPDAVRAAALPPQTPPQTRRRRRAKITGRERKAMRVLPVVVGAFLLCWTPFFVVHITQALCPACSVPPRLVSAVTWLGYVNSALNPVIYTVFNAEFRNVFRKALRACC

D(3) dopamine receptor = D(3) dopamine receptor (Homo sapiens, UniProt P35462); test: Displacement of [3H]spiperone from human Dopamine receptor D3 expressed in CHO cells; type: cell-based
Sequence of D(3) dopamine receptor (P35462 whole entry): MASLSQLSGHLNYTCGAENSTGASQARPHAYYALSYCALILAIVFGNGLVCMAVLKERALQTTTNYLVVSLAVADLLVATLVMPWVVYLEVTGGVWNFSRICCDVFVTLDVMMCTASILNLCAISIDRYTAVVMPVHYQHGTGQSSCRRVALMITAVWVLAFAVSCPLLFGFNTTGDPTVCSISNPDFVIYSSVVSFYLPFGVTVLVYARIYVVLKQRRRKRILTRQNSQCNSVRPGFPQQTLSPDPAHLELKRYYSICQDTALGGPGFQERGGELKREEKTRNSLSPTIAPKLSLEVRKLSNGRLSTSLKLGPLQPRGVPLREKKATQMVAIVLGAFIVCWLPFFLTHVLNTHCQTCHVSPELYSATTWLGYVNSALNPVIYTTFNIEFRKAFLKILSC

Sequence of D(1A) dopamine receptor (Q95136 whole entry): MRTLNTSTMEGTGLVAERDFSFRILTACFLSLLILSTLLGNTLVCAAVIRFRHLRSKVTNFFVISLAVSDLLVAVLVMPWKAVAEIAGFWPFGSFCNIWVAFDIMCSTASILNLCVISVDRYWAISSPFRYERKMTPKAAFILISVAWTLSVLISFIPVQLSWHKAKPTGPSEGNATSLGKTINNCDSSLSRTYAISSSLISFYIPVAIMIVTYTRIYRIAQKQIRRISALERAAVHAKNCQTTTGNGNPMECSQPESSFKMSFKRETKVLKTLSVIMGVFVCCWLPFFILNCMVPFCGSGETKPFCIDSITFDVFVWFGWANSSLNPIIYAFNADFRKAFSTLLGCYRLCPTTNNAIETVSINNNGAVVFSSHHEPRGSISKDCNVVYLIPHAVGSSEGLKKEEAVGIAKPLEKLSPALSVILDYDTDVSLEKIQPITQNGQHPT

Ki (D(1A) dopamine receptor)	Ki (D(2) dopamine receptor [1])	Ki (D(2) dopamine receptor [2])	Ki (D(4) dopamine receptor)	Ki (D(3) dopamine receptor)	SMILES
14 µM	4.9 µM	6.2 µM	2.7 µM	7.7 µM	C[Si](C)(C)C#Cc1cccn1C1CCN(Cc2ccccc2)CC1
14 µM	6.3 µM	6.6 µM	0.94 µM	7.9 µM	C#Cc1cccn1C1CCN(Cc2ccccc2)CC1
14 µM	18 µM	13 µM	0.23 µM	7 µM	N#CC(C#N)=Cc1ccn(C2CCN(Cc3ccccc3)CC2)c1
11 µM	5.3 µM	8.5 µM	1.5 µM	2.6 µM	Ic1cccn1C1CCN(Cc2ccccc2)CC1
39 µM	3.2 µM	3.4 µM	0.13 µM	6.8 µM	c1ccc(CN2CCC(n3ccc(-c4cnco4)c3)CC2)cc1
15 µM	7.8 µM	11 µM	0.28 µM	5.1 µM	N#CC(C#N)=Cc1cccn1C1CCN(Cc2ccccc2)CC1
34 µM	9.8 µM	8.5 µM	1.1 µM	15 µM	c1ccc(CN2CCC(n3cccc3)CC2)cc1
10 µM	0.32 µM	0.61 µM	0.063 µM	0.77 µM	c1ccc(CN2CCC(n3cccc3-c3cnco3)CC2)cc1
61 µM	65 µM	49 µM	0.96 µM	31 µM	O=Cc1ccn(C2CCN(Cc3ccccc3)CC2)c1
5.8 µM	1.5 µM	1.4 µM	0.2 µM	2.5 µM	O=Cc1cccn1C1CCN(Cc2ccccc2)CC1
16 µM	8.3 µM	10 µM	3.3 µM	8.7 µM	C(#Cc1cccn1C1CCN(Cc2ccccc2)CC1)c1ccccc1
